Among the data in ChEMBL document CHEMBL1201862, “PubChem BioAssay data set” (2004) are EC50, AC50 and IC50 values, retold here.

Test [1] relates to Streptococcus sp. 'group A'. As to the kind of experiment: growth inhibition of control SK(-) GAS strain, dose response, counter-screen for streptokinase expression inhibitor project, luminescence, kanamycin, BacTiterGlo, confirmation (AID 1900). It counts as functional, organism-based. For orientation: Counterscreens check selectivity or assay interference.
In another test the test system is INS1. Put plainly: beta cell apoptosis inhibitors, cytokine rescue, dose response, luminescence, retest (AID 449756).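 Also: cell death triggered by IL-1 beta plus TNF-alpha plus IFN-gamma mixture; protective hits raise ATP signal compared with cytokine alone wells.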 It counts as functional, cell-based. Particulars: Rattus norvegicus.
The target of test [2] is Latent membrane protein 1 (Human herpesvirus 4 (strain B95-8), UniProt P03230). As to the kind of experiment: TES1-eGFP NF-kB reporter inhibition versus Tet-On dsRED, dose response, selectivity assay for LMP1 NF-kB inhibitor project, imaging, HEK293T, dual-color eGFP/dsRED, cherry-picks (AID 588398). It counts as functional, cell-based.
For the next test, the target named is T1, Streptokinase A (Streptococcus pyogenes serotype M1, UniProt P10520).
T1 sequence (P10520 whole entry): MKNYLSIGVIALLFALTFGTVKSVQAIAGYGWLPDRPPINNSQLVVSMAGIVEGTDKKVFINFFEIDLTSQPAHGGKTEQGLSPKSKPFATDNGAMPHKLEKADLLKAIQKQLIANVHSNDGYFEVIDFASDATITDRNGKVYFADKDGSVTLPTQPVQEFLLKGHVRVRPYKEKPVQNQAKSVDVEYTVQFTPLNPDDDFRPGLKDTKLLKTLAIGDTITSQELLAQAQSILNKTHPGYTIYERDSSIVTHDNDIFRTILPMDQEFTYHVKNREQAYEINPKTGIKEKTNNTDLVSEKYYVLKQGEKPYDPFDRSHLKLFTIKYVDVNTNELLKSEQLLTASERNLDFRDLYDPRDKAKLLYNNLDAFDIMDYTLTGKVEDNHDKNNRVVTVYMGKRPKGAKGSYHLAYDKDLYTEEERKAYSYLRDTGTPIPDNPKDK
Put plainly: S. pyogenes streptokinase expression inhibitors, potency, dose response, plasminogen activation absorbance, OD405 (AID 1914).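 Also: secreted streptokinase activity via plasminogen activation per viability signal from cell pellet.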 It counts as functional, Streptococcus pyogenes M1 GAS.

Another test concerns the target Nonstructural protein 1 (Influenza A virus, UniProt Q194T2). It counts as functional, Influenza A virus (A/California/07/2009(H1N1)).
Test [3] addresses T2, Intestinal-type alkaline phosphatase (Homo sapiens, UniProt P09923). As to the kind of experiment: human IAP activators, dose response, biochemical, luminescent, uHTS hits, set 2 (AID 488817).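 Also: potency of activators that raise enzyme activity.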 It counts as functional.
The target of test [4] is T3, Alkaline phosphatase, tissue-nonspecific isozyme (Homo sapiens, UniProt P05186).
T3 sequence (P05186 whole entry): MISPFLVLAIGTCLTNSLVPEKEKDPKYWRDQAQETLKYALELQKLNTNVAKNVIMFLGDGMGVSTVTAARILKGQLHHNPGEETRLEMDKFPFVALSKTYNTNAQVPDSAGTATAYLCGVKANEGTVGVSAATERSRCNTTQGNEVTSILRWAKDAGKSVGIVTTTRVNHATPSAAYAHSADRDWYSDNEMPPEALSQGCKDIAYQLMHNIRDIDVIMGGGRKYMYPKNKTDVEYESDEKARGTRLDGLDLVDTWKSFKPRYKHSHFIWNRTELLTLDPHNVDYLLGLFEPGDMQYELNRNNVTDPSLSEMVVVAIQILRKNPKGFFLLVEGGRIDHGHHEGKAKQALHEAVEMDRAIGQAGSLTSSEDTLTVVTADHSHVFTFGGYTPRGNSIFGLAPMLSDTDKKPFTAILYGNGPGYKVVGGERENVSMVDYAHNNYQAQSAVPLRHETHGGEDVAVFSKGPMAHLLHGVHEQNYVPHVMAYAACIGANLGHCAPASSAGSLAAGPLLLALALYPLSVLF
As to the kind of experiment: TNAP enzyme activators, dose response, selectivity assay for human IAP activator project, biochemical, TNAP isozyme, human IAP uHTS hits (AID 488886).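 Also: potency of compounds raising TNAP activity as a selectivity check on IAP activators.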 It counts as functional.

The target in test [5] is Eukaryotic translation initiation factor 4H (Homo sapiens, UniProt Q15056). As to the kind of experiment: human eIF4H binding inhibitors, primary screen, translation initiation inhibitor project, biochemical, uHTS, fluorescence polarization (AID 2012). Background: In fluorescence polarisation assays a small probe gives low polarisation when free and higher when bound to something large.

Test [6] addresses T2, Intestinal-type alkaline phosphatase. Put plainly: human intestinal alkaline phosphatase activators, dose response, biochemical, luminescence, uHTS hits (AID 463120). It counts as functional.
For test [7], the target named is T3, Alkaline phosphatase, tissue-nonspecific isozyme. As to the kind of experiment: TNAP enzyme inhibition by screening hits, dose response, selectivity assay for mouse IAP inhibitor project, biochemical, human TNAP, uHTS hits (AID 488906). It counts as functional.
In test [8] the target is T4, Intestinal-type alkaline phosphatase (Mus musculus, UniProt P24822). As to the kind of experiment: PubChem AID 488874. It counts as functional.
Test [9] addresses Polyadenylate-binding protein 1 (Homo sapiens, UniProt P11940). Put plainly: PABP poly(A) RNA binding inhibitors, primary screen, biochemical, fluorescence polarization, uHTS (AID 2014).
Test [10] concerns the target T4, Intestinal-type alkaline phosphatase. As to the kind of experiment: PubChem AID 488785. It counts as functional.

The source made the active and inactive calls.

T4 sequence (P24822 whole entry): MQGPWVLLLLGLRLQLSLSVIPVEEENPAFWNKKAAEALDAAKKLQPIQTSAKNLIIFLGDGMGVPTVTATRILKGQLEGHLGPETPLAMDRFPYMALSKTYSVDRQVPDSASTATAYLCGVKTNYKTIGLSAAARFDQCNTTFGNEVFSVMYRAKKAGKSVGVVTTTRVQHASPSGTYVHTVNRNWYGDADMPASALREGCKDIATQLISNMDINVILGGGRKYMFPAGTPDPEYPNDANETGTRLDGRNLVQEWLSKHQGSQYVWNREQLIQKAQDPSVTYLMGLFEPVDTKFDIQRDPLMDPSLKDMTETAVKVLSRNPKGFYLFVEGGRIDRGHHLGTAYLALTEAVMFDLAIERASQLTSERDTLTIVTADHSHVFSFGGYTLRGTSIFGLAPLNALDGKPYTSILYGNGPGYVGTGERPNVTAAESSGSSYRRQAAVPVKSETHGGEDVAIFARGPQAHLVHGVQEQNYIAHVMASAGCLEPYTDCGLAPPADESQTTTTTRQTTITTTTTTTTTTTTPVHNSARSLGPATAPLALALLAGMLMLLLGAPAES
T2 sequence (P09923 whole entry): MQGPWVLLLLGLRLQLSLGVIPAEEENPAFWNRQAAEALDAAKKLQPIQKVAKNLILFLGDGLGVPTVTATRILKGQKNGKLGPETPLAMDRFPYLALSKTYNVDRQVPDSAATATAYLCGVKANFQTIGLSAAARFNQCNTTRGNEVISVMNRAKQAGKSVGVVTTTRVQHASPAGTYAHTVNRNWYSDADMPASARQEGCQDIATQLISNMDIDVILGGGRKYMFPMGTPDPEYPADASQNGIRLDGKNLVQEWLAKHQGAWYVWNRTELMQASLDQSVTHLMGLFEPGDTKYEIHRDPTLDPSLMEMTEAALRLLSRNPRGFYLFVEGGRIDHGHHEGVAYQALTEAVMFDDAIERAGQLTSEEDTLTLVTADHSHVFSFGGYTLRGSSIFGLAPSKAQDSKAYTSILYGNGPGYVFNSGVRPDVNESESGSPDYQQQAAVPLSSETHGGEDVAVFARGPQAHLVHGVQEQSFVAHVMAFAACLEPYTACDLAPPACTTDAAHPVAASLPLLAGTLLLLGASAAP
Chain of Latent membrane protein 1 (P03230 whole entry): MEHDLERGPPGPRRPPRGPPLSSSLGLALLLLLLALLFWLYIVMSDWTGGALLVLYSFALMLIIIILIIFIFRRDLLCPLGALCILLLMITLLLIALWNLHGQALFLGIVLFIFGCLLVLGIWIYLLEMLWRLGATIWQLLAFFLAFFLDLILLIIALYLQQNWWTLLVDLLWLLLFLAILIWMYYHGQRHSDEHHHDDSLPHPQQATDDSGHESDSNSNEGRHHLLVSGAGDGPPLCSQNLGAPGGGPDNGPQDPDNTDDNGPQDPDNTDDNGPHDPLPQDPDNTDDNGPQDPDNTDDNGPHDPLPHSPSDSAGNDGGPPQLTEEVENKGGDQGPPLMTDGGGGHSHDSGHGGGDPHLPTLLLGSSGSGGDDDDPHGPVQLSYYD
Chain of Nonstructural protein 1 (Q194T2 whole entry): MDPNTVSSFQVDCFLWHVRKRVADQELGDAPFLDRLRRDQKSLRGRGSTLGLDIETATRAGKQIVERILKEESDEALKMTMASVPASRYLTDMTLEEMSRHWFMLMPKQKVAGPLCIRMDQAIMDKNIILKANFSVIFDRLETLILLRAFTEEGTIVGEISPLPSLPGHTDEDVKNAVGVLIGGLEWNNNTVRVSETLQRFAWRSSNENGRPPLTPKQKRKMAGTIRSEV
Chain of Polyadenylate-binding protein 1 (P11940 whole entry): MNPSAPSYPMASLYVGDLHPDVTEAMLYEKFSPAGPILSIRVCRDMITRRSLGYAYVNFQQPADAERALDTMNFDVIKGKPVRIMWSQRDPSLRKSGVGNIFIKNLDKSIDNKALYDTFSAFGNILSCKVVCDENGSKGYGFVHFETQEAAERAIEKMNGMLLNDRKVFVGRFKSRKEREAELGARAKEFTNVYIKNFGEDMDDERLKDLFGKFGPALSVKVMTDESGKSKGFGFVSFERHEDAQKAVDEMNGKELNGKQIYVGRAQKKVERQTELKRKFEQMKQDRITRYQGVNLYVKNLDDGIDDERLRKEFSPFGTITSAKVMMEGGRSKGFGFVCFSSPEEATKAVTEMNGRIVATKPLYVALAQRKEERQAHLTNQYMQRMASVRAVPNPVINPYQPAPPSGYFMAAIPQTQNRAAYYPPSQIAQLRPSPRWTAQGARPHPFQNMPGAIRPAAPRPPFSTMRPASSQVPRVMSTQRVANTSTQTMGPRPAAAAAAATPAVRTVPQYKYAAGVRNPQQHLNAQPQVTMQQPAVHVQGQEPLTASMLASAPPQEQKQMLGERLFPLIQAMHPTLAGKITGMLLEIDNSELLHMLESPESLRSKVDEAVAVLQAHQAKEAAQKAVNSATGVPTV

One may read the EC50 as the concentration needed to bring the measured effect to its halfway point. Broadly, the AC50 is the concentration giving half of the maximal activity seen. As usually defined, the IC50 is the concentration that gives 50% inhibition. `Cc1onc(-c2ccccc2)c1C(=O)NC(=S)NNC(=O)c1ccc(O)cc1O`: the figures for the EC50 (in [1]; at Streptokinase A) were 6.86 µM (active) and > 150 µM (not active), respectively. The AC50 in the test on INS1 was 3.95 µM (active); in [2] it was 1.15 µM (active). Besides, on Nonstructural protein 1, the IC50 was 11.4 µM (active).

For `O=C(N/N=C/c1ccc(O)cc1O)C(=O)N/N=C/c1ccc(O)cc1O`, the figures for the EC50 in test [3], in test [4] and in test [6] were 4.56 µM (active), > 100 µM (inactive) and 7.62 µM (active), respectively. The IC50 in test [5] is 2.31 µM (active); in [7] it was 38.1 µM (active); in test [8], 5.04 µM (active); in test [9], > 100 µM (inactive); in [10], 0.604 µM (active).
